From patent US10874743B2, “IRAK degraders and uses thereof” (Kymera Therapeutics, Inc., priority 2017, dated 2020)

Biological target: T1, IRAK4 (Homo sapiens, UniProt Q9NWZ3)
T1 sequence (Q9NWZ3 1-460): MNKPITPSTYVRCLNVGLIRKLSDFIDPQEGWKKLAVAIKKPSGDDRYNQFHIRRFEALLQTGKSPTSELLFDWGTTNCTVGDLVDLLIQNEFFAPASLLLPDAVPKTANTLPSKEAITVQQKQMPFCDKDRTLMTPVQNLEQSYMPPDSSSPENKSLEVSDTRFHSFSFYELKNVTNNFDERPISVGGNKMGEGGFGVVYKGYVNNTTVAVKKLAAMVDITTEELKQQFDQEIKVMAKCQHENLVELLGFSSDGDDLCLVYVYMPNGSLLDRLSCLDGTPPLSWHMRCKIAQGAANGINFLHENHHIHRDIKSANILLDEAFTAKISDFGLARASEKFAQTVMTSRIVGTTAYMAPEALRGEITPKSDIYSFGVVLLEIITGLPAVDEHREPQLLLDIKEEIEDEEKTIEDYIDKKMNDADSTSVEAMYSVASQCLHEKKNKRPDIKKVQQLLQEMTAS
Test: OCI-LY-10 degradation assay (western blot, % IRAK4 degraded after 4 hours)
Format: cell-based
Set-up: endogenous in cells; host or cells: OCI-LY10
Settings: OCI-LY10 cells; for OCI-LY10 % IRAK4 Degradation: IRAK4 degraded after 4 hours, western blot; for OCI-LY10 % IRAK4 Degradation (0.01 uM) / OCI-LY10 % IRAK4 Degradation (0.1 uM) / OCI-LY10 % IRAK4 Degradation (1 uM): 4 hours; for OCI-LY10 % IRAK4 Degradation (0.01 uM): 0.01 uM compound; for OCI-LY10 % IRAK4 Degradation (0.1 uM): 0.1 uM compound; for OCI-LY10 % IRAK4 Degradation (1 uM): 1 uM compound
Method in brief: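 IRAK4 loss after 4 h at 37° C was scored A (>50%), B (>20-50%) or C (<20%) from infrared western blots of RIPA lysates, 20-25 μg protein per lane. Compound was applied at 0.003-10 μM final to OCI-LY10 cells cultured in RPMI-1640 with 20% FBS and 55 μM 2-ME.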

| SMILES | OCI-LY10 % IRAK4 Degradation | OCI-LY10 % IRAK4 Degradation (0.01 uM) | OCI-LY10 % IRAK4 Degradation (0.1 uM) | OCI-LY10 % IRAK4 Degradation (1 uM) |
| --- | --- | --- | --- | --- |
| Cc1ncsc1-c1ccc(CNC(=O)[C@@H]2C[C@@H](O)CN2C(=O)[C@@H](NC(=O)COCCOCCOCCOCCOCCN2CCC(Nc3cccc(-c4cnc5ccc(C#N)cn45)n3)C2)C(C)(C)C)cc1 (some centres unmarked) [I-209] | C (<20% degradation) |  |  |  |
| CC(C)(OCCOCCNC(=O)COc1cccc2c1C(=O)N(C1CCC(=O)NC1=O)C2=O)C(F)CNC(=O)c1cnc(-n2ncc3cc(C#N)cnc32)cc1NC1CC1 (centres unmarked) [I-101] | C (<20% degradation) |  |  |  |
| CC(C)(OCCOCCOCCOCCOCCNc1cccc2c1C(=O)N(C1CCC(=O)NC1=O)C2=O)C(F)CNC(=O)c1cnc(-n2ncc3cc(C#N)cnc32)cc1NC1CC1 (centres unmarked) [I-60] | C (<20% degradation) |  |  |  |
| NC(=O)c1nn(-c2ccc(C(=O)NCCOCCOCCOCCOCCCc3ccc4c(c3)C(=O)N(C3CCC(=O)NC3=O)C4=O)cc2)cc1NC(=O)c1coc(-c2ccnc(NCC(F)(F)F)c2)n1 (centres unmarked) [I-148] | B (>20-50% degradation) |  |  |  |
| NC(=O)c1nn(-c2ccc(C(=O)NCCOCCOCCCc3cccc4c3C(=O)N(C3CCC(=O)NC3=O)C4=O)cc2)cc1NC(=O)c1coc(-c2ccnc(NCC(F)(F)F)c2)n1 (centres unmarked) [I-147] | A (>50% degradation) |  |  |  |
| CN(CCOCCOCCNc1cccc2c1C(=O)N(C1CCC(=O)NC1=O)C2=O)C(=O)[C@H]1C[C@H](NC(=O)c2cnc(-n3ncc4cc(C#N)cnc43)cc2NC2CC2)C1 (some centres unmarked) [I-37] | C (<20% degradation) |  |  |  |
| NC(=O)[C@@H](O)C[C@H]1CCc2sc3ncnc(OC4CCC(N5CCN(C(=O)COCCOCCOCCOCCNc6cccc7c6C(=O)N(C6CCC(=O)NC6=O)C7=O)CC5)CC4)c3c21 (stereo partly drawn) [I-161, (2S)-3-[(8R)-1-[4-[4-[2-[2-[2-[2-[2-[[2-(2,6-dioxo-3-piperidyl)-1,3-dioxo-isoindolin-4-yl]amino]ethoxy]ethoxy]ethoxy]ethoxy]acetyl]piperazin-1-yl]cyclohexoxy]-7,8-dihydro-6H-cyclopenta[4,5]thieno[1,2-c]pyrimidin-8-yl]-2-hydroxy-propanamide] | C (<20% degradation) |  |  |  |
| CN(CCOCCOCCOCCOCCNc1cccc2c1C(=O)N(C1CCC(=O)NC1=O)C2=O)C(=O)[C@H]1C[C@H](NC(=O)c2cnc(-n3ncc4cc(C#N)cnc43)cc2NC2CC2)C1 (some centres unmarked) [I-39] | C (<20% degradation) |  |  |  |

Further lines, results first:

| OCI-LY10 % IRAK4 Degradation | OCI-LY10 % IRAK4 Degradation (0.01 uM) | OCI-LY10 % IRAK4 Degradation (0.1 uM) | OCI-LY10 % IRAK4 Degradation (1 uM) | SMILES |
| --- | --- | --- | --- | --- |
|  | B (>20-50% degradation) | B (>20-50% degradation) | C (<20% degradation) | CN(CCCc1cccc2c1C(=O)N(C1CCC(=O)NC1=O)C2=O)Cc1ccc(-n2cc(NC(=O)c3coc(-c4ccnc(NCC5CC5)c4)n3)c(C(F)F)n2)cc1 (centres unmarked) [I-355] |
|  | C (<20% degradation) | C (<20% degradation) | C (<20% degradation) | O=C1CCC(N2C(=O)c3cccc(CCCNCc4ccc(-n5cc(NC(=O)c6coc(-c7ccnc(NCC(F)(F)F)c7)n6)c(C(F)F)n5)cc4)c3C2=O)C(=O)N1 (centres unmarked) [I-361] |
|  | C (<20% degradation) | C (<20% degradation) | B (>20-50% degradation) | CN(CCCCCNCCCc1cccc2c1C(=O)N(C1CCC(=O)NC1=O)C2=O)C(=O)c1ccc(-n2cc(NC(=O)c3coc(-c4ccnc(NCC5CC5)c4)n3)c(C(N)=O)n2)cc1 (centres unmarked) [I-315] |
|  | C (<20% degradation) | C (<20% degradation) | C (<20% degradation) | CN(CCOCCCc1cccc2c1C(=O)N(C1CCC(=O)NC1=O)C2=O)C(=O)c1ccc(-n2cc(NC(=O)c3coc(-c4ccnc(NCC5CC5)c4)n3)c(C(N)=O)n2)cc1 (centres unmarked) [I-229] |
|  | C (<20% degradation) | A (>50% degradation) | A (>50% degradation) | O=C1CCC(N2C(=O)c3ccc(N4CCN(CCOCCOCCNCc5ccc(-n6cc(NC(=O)c7coc(-c8ccnc(NCC9CC9)c8)n7)c(C(F)F)n6)cc5)CC4)cc3C2=O)C(=O)N1 (centres unmarked) [I-337] |
